The values that follow come from US20100286226A1, “COMBINATION THERAPY RELATED TO SEROTONIN DUAL ACTION COMPOUNDS” (H. LUNDBECK A/S, priority 2007, published 2010).

In assay [1] the test system is dorsal raphe 5-HT neurons. The assay is described as follows: Inhibitory effect on the firing activity of dorsal raphe 5-HT neurons (extracellular unitary recordings, anesthetized rats). It counts as in vivo, rat. Here is the method: The experiments were carried out in male Sprague-Dawley rats (Harlan, Gannat, FRANCE) weighing 250 to 300 g at the day of the experiment and which have been kept under standard laboratory conditions (12:12 light-dark cycle with free access to food and water). The animals were anesthetized with chloral hydrate (400 mg/kg, i.p.). Supplemental doses were given to maintain constant anesthesia and to prevent any nociceptive reaction to a tail pinch.
Extracellular unitary recordings of dorsal raphe 5-HT neurons were performed with single-barreled glass micropipettes preloaded with fiberglass filaments in order to facilitate filling. The tip was broken back to 2 to 4 μm and filled with a 2M NaCl solution saturated with Blue Chicago dye. The rats (control or treated) were placed in a stereotaxic frame and a burr hole was drilled on the midline 1 mm anterior to lambda. Dorsal raphe 5-HT neurons were encountered over a distance of 1 mm starting immediately below the ventral border of the Sylvius aqueduct. These neurons were identified using the criteria of Aghajanian (Aghajanian, G. K., Essays Neurochem Neuropharmacol 2000, 3: 1-32): a slow (0.5-2.5 Hz) and regular firing rate and long-duration (0.8-1.2 ms) positive action potentials.
To determine putative synergistic effect of Compound II (2-(6-Fluoro-1H-indol-3-ylsulfanyl)-benzyl]-methyl-amine) on the inhibitory action of 5-HTP (25 mg/kg, i.v.) on the firing activity of dorsal raphe 5-HT neurons, a dose of Compound II corresponding to 20-30% of inhibition, was injected prior to and after the administration of 5-HTP.
Statistical analysis was performed with SigmaStat for Window version 4.0 software (Jandel Corporation). Average was the mean±SEM. Significance was considered for p<0.05.

A further assay has as its target allosteric site of SERT (Homo sapiens, UniProt P31645). The assay can be described thus: Dissociation binding studies (3H-escitalopram), allosteric modulation of the serotonin transporter. Here is the method:
Whether a compound operates through an allosteric mechanism can be determined by in vitro dissociation experiments. Dissociation binding experiments measure the “off rate” (koff) for a radioligand of the protein. After radioligand and transporter protein are allowed to bind (i.e. form a complex), then ligand is added to block further binding of radioligand to the transporter so that the rate of dissociation can be measured. Binding (as measured by radioactivity of the radioligand:transporter complex) is measured at various times to determine the rate at which the radioligand dissociates from the transporter. Dissociation rate constants can be used to determine the half-life of the bound complex. Half-life determinations can be used to ascertain whether a compound is an allosteric modulator of the human SERT.

The next assay deals with T1, serotonin transporter (Rattus norvegicus, UniProt P31652).
T1 construct: The P2 fraction (synaptosomal fraction) was obtained by centrifugation; from tissue; host or cells: Male Wistar rat brain (minus cerebellum), P2 synaptosomal fraction
The assay can be described thus: Inhibition of 3H-serotonin uptake in rat brain synaptosomes. It counts as biochemical. To be noted: 3H-5-HT 10 nM, read-out: uptake inhibitory potency (IC50). As for the experimental part:
In order to test compounds at the primary, high-affinity binding site of the serotonin transporter, i.e. determine if a compound is a serotonin reuptake inhibitor, inhibition of the uptake of serotonin (5-HT) was determined.
By the following method, the inhibition of the uptake of ^3H-serotonin (^3H-5-HT) (10 nM) in rat brain synaptosomes by test compounds was determined in vitro. Exemplary methods, and also results of serotonin uptake for specific SRIs, is described in Hyttel, J., Psychopharmacology 1978, 60:13-18; Hyttel, J., Prog. Neuro-Psychopharmacol. & Biol. Psychait. 1982, 6:277-295; Hyttel, J. & Larsen, Acta Pharmacol. Tox. 1985, 56(suppl. 1):146-153; Sanchez, C. and Hyttel, J. European J. Pharm. […]
To 400 μl of the synaptosomal suspension (5 mg original tissue) on ice, 100 μl test compound in water was added. […] After shaking for 1 h and storage for 2 h in the dark, the content of radioactivity was determined by liquid scintillation counting (cpm). Uptake was obtained by subtracting the non-specific binding and passive transport measured in the presence of 10 μM […]. The measured cpm was plotted against test compound concentration, and the best fitting s-shaped curve was drawn. The uptake inhibitory potencies are expressed as IC50 values in nM (logarithmic means). Two full concentration-response curves were measured using five concentrations of test compound in triplicate.

For assay [2], the target named is norepinephrine transporter (NET) (Homo sapiens, UniProt P23975). The assay is described as follows: In vitro reuptake inhibitory potency at the norepinephrine transporter. It counts as biochemical.
Another assay deals with ultrasonic vocalization. To be noted: rat, cited from earlier work.
In assay [3] the target is human serotonin transporter expressed in COS-1 cell membranes (Homo sapiens, UniProt P31645). To be noted: cited from earlier work.
The subject of assay [4] is isolation-induced aggression. To be noted: mouse, with subeffective dose of L; cited from earlier work.

Each structure is given as a SMILES string.

Sequence of norepinephrine transporter (NET) (P23975 whole entry, species assumed): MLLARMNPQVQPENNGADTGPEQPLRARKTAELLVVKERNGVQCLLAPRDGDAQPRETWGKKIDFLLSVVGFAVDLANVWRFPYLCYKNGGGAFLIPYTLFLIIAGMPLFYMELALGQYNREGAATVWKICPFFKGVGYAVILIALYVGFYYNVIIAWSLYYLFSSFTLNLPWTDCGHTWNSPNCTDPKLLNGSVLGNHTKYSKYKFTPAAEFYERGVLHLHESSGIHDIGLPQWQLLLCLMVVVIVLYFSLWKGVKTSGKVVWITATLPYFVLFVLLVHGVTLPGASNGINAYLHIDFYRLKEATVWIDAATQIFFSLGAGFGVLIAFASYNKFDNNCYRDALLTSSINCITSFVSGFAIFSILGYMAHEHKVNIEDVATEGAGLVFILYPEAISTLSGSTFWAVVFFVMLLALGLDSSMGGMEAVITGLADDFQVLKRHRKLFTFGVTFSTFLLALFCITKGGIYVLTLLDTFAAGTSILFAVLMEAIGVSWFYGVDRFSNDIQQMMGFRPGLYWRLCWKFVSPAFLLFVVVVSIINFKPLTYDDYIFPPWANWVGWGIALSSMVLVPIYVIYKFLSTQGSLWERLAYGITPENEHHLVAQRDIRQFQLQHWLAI
Sequence of human serotonin transporter expressed in COS-1 cell membranes (P31645 whole entry): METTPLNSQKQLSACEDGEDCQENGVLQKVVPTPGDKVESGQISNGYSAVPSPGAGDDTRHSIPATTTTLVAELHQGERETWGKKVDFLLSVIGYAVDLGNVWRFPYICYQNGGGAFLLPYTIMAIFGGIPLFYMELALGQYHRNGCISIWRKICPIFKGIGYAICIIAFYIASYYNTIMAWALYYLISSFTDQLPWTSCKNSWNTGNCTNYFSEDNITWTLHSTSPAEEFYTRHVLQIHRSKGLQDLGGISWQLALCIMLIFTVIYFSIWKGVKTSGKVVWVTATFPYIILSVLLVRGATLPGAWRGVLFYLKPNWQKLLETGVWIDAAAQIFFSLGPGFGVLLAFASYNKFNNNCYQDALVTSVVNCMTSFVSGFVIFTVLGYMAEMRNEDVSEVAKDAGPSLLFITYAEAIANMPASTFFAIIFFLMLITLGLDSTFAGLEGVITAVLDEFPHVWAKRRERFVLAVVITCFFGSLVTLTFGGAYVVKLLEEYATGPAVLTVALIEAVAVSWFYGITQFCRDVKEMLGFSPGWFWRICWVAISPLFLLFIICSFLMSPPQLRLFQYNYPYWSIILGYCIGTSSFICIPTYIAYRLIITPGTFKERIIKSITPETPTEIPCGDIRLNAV
Sequence of allosteric site of SERT (P31645 whole entry): as above
T1 sequence (P31652 whole entry): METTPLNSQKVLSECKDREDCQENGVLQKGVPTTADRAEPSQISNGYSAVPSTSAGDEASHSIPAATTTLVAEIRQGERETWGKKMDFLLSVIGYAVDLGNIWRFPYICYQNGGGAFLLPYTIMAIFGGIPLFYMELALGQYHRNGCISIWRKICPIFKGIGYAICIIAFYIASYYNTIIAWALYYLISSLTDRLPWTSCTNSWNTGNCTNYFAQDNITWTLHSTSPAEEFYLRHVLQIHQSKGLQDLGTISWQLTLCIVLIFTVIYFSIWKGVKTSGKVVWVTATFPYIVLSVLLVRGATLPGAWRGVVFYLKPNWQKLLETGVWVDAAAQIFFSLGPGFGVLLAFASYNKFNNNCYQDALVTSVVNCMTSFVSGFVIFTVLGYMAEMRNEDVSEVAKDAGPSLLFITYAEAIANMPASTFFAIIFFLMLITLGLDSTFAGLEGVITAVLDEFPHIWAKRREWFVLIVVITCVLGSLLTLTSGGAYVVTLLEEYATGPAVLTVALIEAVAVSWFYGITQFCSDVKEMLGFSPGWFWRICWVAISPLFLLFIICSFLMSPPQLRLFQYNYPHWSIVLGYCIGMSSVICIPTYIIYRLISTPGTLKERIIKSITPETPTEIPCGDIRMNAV

With `NC(Cc1c[nH]c2ccc(O)cc12)C(=O)O` (stereo not drawn) [Compound 5-HTP, 2-amino-3-(5-hydroxy-1H-indol-3-yl)-propanoic acid], the “reduction of dorsal raphe 5-HT neuron firing” value in assay [1] (5-HTP 25 mg/kg i.v. alone (first injection), six rats, mean±SEM) came to 13.4±2.26%. The “further decrease of firing” value in assay [1] (5-HTP 25 mg/kg injected after Compound II 0.025 mg/kg, six rats) was found to be 70.53±2.76%.

As usually defined, the IC50 is the midpoint of a concentration-inhibition curve. Usually inhibition stands for the change of the read-out against control, counted positive when it falls. `CNCc1ccccc1Sc1c[nH]c2cc(F)ccc12` [Compound II]: on allosteric site of SERT, the “effect on dissociation rate of 3H-escitalopram” value is “significantly slowed”. Further, at serotonin transporter, the IC50 was determined as 0.35 nM. Moreover, the “further decrease of firing” value in assay [1] (Compound II 0.025 mg/kg as second injection after 5-HTP 25 mg/kg, six rats) is on record as 82.43±2.78%. In addition, in assay [1] (Rattus norvegicus, Neuron, Compound II 0.025 mg/kg alone (first injection), six rats, mean±SEM), the inhibition at 0.025 mg/kg stood at 24.1 ± 4.98%. Further, in assay [2], the “inhibitory effect at NET (in vitro reuptake inhibitory potency)” value is “exerts an inhibitory effect”.

In the case of `CN(C)CCC[C@]1(c2ccc(F)cc2)OCc2cc(C#N)ccc21` [R-citalopram], the “ultrasonic vocalization compared to controls” value in the assay on ultrasonic vocalization (concomitant treatment) is listed as “significant increase”.

Take `COc1ccccc1N1CCN(CCN(C(=O)C2CCCCC2)c2ccccn2)CC1` [WAY-100635]: in assay [1] (administered after Compound II and 5-HTP), the “effect on spontaneous firing rate of the neuron” value is on record as “increases the spontaneous firing rate”.

Turning to `CNCC[C@H](Oc1cccc2ccccc12)c1cccs1` [duloxetine], the “stabilizing effect on radioligand:human serotonin transporter complex (dissociation from primary site)” value in assay [3] was “little or no stabilizing effect”.

Take `CN(C)CCC[C@@]1(c2ccc(F)cc2)OCc2cc(C#N)ccc21` [escitalopram]: the “anxiolytic response to co-treatment with L, 5-HTP” value with ultrasonic vocalization (co-treatment with L, 5-HTP) was “markedly enhanced”.

Consider `Fc1ccc([C@@H]2CCNC[C@H]2COc2ccc3c(c2)OCO3)cc1` [paroxetine], for which, in assay [4], the “antiaggressive effect on co-administration of a subeffective dose of L, 5-HTP” value is “greatly potentiated”.
